Laboratory results from patent publication US4524066A, “Process for the preparation of injectable chondroitin polysulfate” (Luitpold-Werk Chemisch-pharmazeutische Fabrik, priority 1981, dated 1985).

What was measured:
Wistar rats = assay: Acute toxicity, Wistar rats, i.v.; format: in vivo
Dogs = assay: Acute toxicity, dogs, i.v.; format: in vivo
Cats = assay: Acute toxicity, cats, i.v.; format: in vivo
NMRI mice = assay: Acute toxicity, NMRI mice, i.v.; format: in vivo

In the case of chondroitin polysulfate, the LD50/7d (Wistar rats) is reported as > 3,000 mg/kg, the LD50/7d (Dogs) is reported as > 1,000 mg/kg and the “therapeutic benefit of daily doses” value (humans; daily doses of up to 500 mg) is reported as “therapeutically advantageous”. For the same substance, the “therapeutic action in humans” value (humans; single dosages 20-250 mg, in particular 30-150 mg, per individual in 0.2-2.0 ml) was “have a therapeutic action in humans”, the LD50/7d (Cats) was > 1,000 mg/kg and the LD50/7d (NMRI mice) was > 3,500 mg/kg.
